From patent US10975056B2 (GlaxoSmithKline Intellectual Property Development Limited, priority 2016, dated 2021)
pIC50: −log10 of the molar value. Where a name gives a salt, the structure may show the parent alone. Read-outs that look alike come from different tables or passages of the source.

Columns and labels:
[1] = biological target: DNMT1 (Homo sapiens, UniProt P26358); assay: DNMT1 biochemical activity, breaklight assay and/or SPA assay
[2] = biological target: DNMT3B (Homo sapiens (Human), UniProt Q9UBC3); assay: DNMT3B breaklight assay; type: biochemical
[3] = test system: erythroid progenitor cells (EPCs); assay: Fetal hemoglobin (HbF) ELISA in day 7 erythroid progenitor cells; type: cell-based, human; settings: Homo sapiens, Erythroid progenitor cell, HbF ELISA, day 7 EPCs, 5 days; read-out: EPC ELISA (pEC50 category) (converted);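 further: for fetal hemoglobin induction normalized to vehicle-treated cells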
How it was run: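 Read-out was OD450 from an HRP/TMB sandwich ELISA on lysates, normalized to DMSO-only control wells. Thawed day 7 EPCs from human marrow CD34+ cells had been treated for 5 days at 37° C with Compound A, 22 concentrations […].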

[4] = biological target: human DNMT3a/3l (Homo sapiens (Human), UniProt Q9Y6K1); assay: DNMT3a/3l breaklight assay; type: biochemical
Chain of human DNMT3a/3l (Q9Y6K1 whole entry, looked up): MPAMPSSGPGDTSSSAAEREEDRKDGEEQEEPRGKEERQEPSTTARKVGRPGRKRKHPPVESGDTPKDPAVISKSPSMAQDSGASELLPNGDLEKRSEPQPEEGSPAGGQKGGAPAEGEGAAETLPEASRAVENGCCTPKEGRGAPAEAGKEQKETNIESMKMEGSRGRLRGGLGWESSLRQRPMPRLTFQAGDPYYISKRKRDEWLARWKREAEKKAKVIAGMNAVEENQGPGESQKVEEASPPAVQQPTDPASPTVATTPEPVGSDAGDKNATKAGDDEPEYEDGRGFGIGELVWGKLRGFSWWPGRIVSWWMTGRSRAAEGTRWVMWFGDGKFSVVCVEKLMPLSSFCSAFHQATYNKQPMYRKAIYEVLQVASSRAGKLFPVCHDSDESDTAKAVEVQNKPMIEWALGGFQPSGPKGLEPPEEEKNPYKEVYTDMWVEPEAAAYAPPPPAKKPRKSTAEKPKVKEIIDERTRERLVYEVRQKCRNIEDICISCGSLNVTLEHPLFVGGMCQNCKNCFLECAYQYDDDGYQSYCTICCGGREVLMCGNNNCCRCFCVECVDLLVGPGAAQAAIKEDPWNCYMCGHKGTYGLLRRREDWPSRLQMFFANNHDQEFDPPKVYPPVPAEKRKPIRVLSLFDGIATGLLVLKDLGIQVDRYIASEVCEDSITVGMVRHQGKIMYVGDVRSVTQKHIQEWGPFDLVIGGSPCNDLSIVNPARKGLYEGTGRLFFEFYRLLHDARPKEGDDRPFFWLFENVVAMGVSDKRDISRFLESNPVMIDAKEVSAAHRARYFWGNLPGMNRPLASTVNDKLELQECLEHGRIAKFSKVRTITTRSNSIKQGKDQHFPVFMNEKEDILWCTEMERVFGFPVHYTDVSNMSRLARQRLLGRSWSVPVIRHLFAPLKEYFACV
Chain of human DNMT3a/3l (Q9UJW3 whole entry partner, looked up): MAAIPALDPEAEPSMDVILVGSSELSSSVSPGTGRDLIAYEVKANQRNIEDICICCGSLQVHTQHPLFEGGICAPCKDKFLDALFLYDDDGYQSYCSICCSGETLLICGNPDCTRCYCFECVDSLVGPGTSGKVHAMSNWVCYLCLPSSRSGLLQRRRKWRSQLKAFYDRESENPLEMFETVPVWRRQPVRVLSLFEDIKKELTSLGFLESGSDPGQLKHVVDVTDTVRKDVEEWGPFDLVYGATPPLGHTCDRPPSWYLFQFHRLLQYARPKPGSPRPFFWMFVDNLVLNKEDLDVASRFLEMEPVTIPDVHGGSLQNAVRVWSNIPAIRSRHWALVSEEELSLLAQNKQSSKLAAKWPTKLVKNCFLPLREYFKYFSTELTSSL
Procedure: DNMT3a/3l Breakliqht Assay
DNMT3a/3l breaklight in vitro assays were conducted in a total volume of 50 μl in a standard 384 well format, using black non-binding surface microplates (Corning #3575). […] Negative control wells used 5 μl of DNMT3a/3l and 5 μl of oligonucleotide but also included 200 μM SAH. All reagents were made up in 1× assay buffer (20 mM Tris pH 7.4, 100 mM NaCl, 1.5 mM EDTA, 0.1 mM MgCl2, 1 mM CHAPS and 1 mM DTT). The reaction was incubated at 37° C. for 90 min and then stopped with the addition of 40 μl detection reagent. Detection reagent, made up in 1× Gla assay buffer (20 mM Tris pH 8.0, 80 mM NaCl, 0.75 mM MgCl2, 0.01% Triton X100 and 1 mM DTT) has a final concentration of 200 μM SAH (Sigma #A9384) and 0.0008 units/μl Gla1 restriction endonuclease (Sibenzyme #E494). Following addition of the detection reagent the plate was incubated in the dark at room temperature for 5 hr. Fluorescence intensity was then measured on the PHERAstar FS (BMG Labtech) at Ex 485 nm and Em 520 nm, with a gain of 400 and an integration time of 100 ms.

[5] = binned activity in either the breaklight or the SPA assay
[6] = read-out: DNMT3B Breaklight IC50
[7] = repeated experimental runs, read-out: average IC50, DNMT3B breaklight assay
[8] = binned activity in either the breaklight or the SPA assay, read-out: DNMT1 BioChemical (pIC50 category) (converted)
[9] = read-out: DNMT3A Breaklight IC50
[10] = repeated experimental runs, read-out: average IC50, DNMT3A breaklight assay
[11] = breaklight assay and/or SPA assay, repeated experimental runs
[12] = breaklight assay and/or SPA assay, repeated experimental runs, read-out: average pIC50 against DNMT1 (converted)

Chain of DNMT1 (P26358 whole entry, looked up): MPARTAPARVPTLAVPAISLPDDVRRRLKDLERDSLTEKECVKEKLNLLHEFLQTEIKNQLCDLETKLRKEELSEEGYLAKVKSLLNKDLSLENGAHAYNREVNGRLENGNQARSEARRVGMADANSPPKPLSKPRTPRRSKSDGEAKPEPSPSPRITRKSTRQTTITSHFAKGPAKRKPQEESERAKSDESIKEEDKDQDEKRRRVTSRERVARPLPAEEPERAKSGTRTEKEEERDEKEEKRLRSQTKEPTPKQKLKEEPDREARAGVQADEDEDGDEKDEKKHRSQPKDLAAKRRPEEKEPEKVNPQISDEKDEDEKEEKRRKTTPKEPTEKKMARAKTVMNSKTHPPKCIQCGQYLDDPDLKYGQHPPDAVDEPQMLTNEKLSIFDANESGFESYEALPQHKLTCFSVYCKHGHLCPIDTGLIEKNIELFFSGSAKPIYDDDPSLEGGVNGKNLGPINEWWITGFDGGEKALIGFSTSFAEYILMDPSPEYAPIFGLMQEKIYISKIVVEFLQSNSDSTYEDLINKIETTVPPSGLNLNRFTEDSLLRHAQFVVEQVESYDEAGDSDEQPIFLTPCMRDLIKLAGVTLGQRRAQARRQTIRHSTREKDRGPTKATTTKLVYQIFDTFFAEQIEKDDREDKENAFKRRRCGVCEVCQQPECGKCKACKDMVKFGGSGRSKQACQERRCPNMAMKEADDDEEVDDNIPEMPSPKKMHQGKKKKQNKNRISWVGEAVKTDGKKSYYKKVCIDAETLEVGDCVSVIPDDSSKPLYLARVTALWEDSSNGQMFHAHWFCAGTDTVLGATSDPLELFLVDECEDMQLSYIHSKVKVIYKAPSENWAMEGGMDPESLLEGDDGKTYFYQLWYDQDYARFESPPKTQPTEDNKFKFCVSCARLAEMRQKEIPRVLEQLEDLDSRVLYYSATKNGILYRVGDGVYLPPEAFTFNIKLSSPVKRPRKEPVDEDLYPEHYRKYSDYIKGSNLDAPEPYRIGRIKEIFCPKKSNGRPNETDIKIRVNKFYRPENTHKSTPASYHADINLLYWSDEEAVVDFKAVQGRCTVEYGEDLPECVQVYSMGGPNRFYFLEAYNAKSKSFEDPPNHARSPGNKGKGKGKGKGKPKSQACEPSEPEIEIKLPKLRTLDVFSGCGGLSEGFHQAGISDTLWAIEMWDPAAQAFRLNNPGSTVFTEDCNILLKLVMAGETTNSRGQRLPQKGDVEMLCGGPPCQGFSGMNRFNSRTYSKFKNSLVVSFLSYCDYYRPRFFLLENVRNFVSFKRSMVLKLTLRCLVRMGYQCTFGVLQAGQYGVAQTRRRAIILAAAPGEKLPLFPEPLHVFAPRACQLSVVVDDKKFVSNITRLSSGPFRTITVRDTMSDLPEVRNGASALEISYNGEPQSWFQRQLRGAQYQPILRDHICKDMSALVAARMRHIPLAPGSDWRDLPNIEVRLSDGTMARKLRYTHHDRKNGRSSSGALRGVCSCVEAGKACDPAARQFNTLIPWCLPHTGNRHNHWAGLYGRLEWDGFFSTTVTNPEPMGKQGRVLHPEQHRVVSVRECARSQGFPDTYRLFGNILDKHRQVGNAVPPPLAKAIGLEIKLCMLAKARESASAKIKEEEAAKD

Structure (SMILES) | DNMT1 BioChemical (pIC50 category) [1, 5] | pIC50 [2, 6] | EC50 [3] | pIC50 [2, 7] | IC50 [1, 8] | pIC50 [4, 9] | pIC50 [4, 10] | average pIC50 against DNMT1 [1, 11] | IC50 [1, 12] | average pIC50 against DNMT1 ([1]; breaklight assay and/or SPA assay, repeated experimental runs, Trifluoroacetic Acid Salt)
CCc1c(C#N)c(SCc2ccc(S(=O)(=O)NC)cc2)nc(N2CCCN(C)CC2)c1C#N [Example 104, 4-(((3,5-Dicyano-4-ethyl-6-(4-methyl-1,4-diazepan-1-yl)pyridin-2-yl)thio)methyl)-N-methylbenzenesulfonamide] | D (Category D: ≥6.5) | 3.60 | < 0.316 µM | – | – | – | – | – | – | –
CCc1c(C#N)c(SC(C(N)=O)c2ccccc2)nc(N(C)C)c1C#N (stereo not shown) [Example 3, 2-{[3,5-dicyano-6-(dimethylamino)-4-ethylpyridin-2-yl]sulfanyl}-2-phenylacetamide] | – | < 3.30 | 0.316 to 1 µM | < 3.30 | – | – | – | – | – | –
CCc1c(C#N)c(SC(C(N)=O)c2ccccc2)nc(N(C)CCOC)c1C#N (stereo not shown) [Example 53, 2-((3,5-Dicyano-4-ethyl-6-((2-methoxyethyl)(methyl)amino)pyridin-2-yl)thio)-2-phenylacetamide] | – | < 3.30 | 1 to 31.6 µM | – | 1 to 31.6 µM | < 3.30 | – | – | – | –
CCc1c(C#N)c(NC)nc(SC(C(N)=O)c2ccccc2)c1C#N (stereo not shown) [Example 52, 2-((3,5-Dicyano-4-ethyl-6-(methylamino)pyridin-2-yl)thio)-2-phenylacetamide] | – | < 3.30 | 1 to 31.6 µM | < 3.30 | 0.316 to 1 µM | < 3.30 | < 3.30 | – | – | –
CCc1c(C#N)c(SC(C(N)=O)c2ccccc2)nc(N2CCNC(=O)C2)c1C#N (stereo not shown) [Example 50, 2-((3,5-Dicyano-4-ethyl-6-(3-oxopiperazin-1-yl)pyridin-2-yl)thio)-2-phenylacetamide] | – | < 3.30 | < 0.316 µM | – | 0.316 to 1 µM | < 3.30 | – | – | – | –
CCc1c(C#N)c(SC(C(N)=O)c2ccccc2)nc(N2CCC(C)(N)CC2)c1C#N (stereo not shown) [Example 136, 2-((6-(4-Amino-4-methylpiperidin-1-yl)-3,5-dicyano-4-ethylpyridin-2-yl)thio)-2-phenylacetamide] | D (Category D: ≥6.5) | 3.42 | < 0.316 µM | – | – | < 3.30 | – | > 6.5 | – | –
CCc1c(C#N)c(SC(C(N)=O)c2ccccc2)nc(N2CCC(N3CCNC3=O)CC2)c1C#N (stereo not shown) [Example 47, 2-((3,5-Dicyano-4-ethyl-6-(4-(2-oxoimidazolidin-1-yl)piperidin-1-yl)pyridin-2-yl)thio)-2-phenylacetamide] | – | < 3.30 | 0.316 to 1 µM | < 3.30 | 0.316 to 1 µM | < 3.30 | < 3.30 | – | – | –
CCc1c(C#N)c(N)nc(S[C@@H](C(N)=O)c2ccccc2)c1C#N [Example 2, (R)-[(6-amino-3,5-dicyano-4-ethylpyridin-2-yl)sulfanyl]-2-phenylacetamide] | – | < 3.30 | > 31.6 µM | – | 0.316 to 1 µM | < 3.30 | – | – | – | –
CCc1c(C#N)c(SC(C(N)=O)c2ccccc2)nc(N2CCN(CCO)CC2)c1C#N (stereo not shown) [Example 129, 2-((3,5-Dicyano-4-ethyl-6-(4-(2-hydroxyethyl)piperazin-1-yl)pyridin-2-yl)thio)-2-phenylacetamide] | – | < 3.30 | 1 to 31.6 µM | – | 0.316 to 1 µM | < 3.30 | – | – | ≥ 1 µM | –
CCc1c(C#N)c(SC(C(N)=O)c2ccc(Cl)cc2)nc(N(C)C)c1C#N (stereo not shown) [Example 128, 2-(4-Chlorophenyl)-2-((3,5-dicyano-6-(dimethylamino)-4-ethylpyridin-2-yl)thio)acetamide] | – | < 3.30 | 0.316 to 1 µM | – | 0.316 to 1 µM | < 3.30 | – | – | – | –
CCc1c(C#N)c(SCc2ccc(CNC(C)=O)cc2)nc(N2CCCN(C)CC2)c1C#N [Example 77, N-(4-(((3,5-Dicyano-4-ethyl-6-(4-methyl-1,4-diazepan-1-yl)pyridin-2-yl)thio)methyl)benzyl)acetamide] | D (Category D: ≥6.5) | < 3.60 | < 0.316 µM | – | – | – | – | > 6.5 | – | –
CCc1c(C#N)c(SCc2ccc(S(N)(=O)=O)cc2)nc(N2CCCN(C)CC2)c1C#N [Example 76, 4-(((3,5-Dicyano-4-ethyl-6-(4-methyl-1,4-diazepan-1-yl)pyridin-2-yl)thio)methyl)benzenesulfonamide] | – | < 3.60 | 0.316 to 1 µM | – | – | – | – | – | – | –
CCc1c(C#N)c(SC(C(N)=O)c2ccccc2)nc(N2CCCN(CC(C)O)CC2)c1C#N (stereo not shown) [Example 107, 2-((3,5-dicyano-4-ethyl-6-(4-(2-hydroxypropyl)-1,4-diazepan-1-yl)pyridin-2-yl)thio)-2-phenylacetamide] | D (Category D: ≥6.5) | < 3.30 | < 0.316 µM | – | – | < 3.30 | – | – | – | –
CCc1c(C#N)c(SC(C(N)=O)c2ccccc2)nc(N2CCCN(CC)CC2)c1C#N (stereo not shown) [Example 7, 2-{[3,5-dicyano-4-ethyl-6-(4-ethyl-1,4-diazepan-1-yl)pyridin-2-yl]sulfanyl}-2-phenylacetamide] | D (Category D: ≥6.5) | < 3.30 | < 0.316 µM | < 3.30 | – | < 3.30 | < 3.30 | – | – | –
CCc1c(C#N)c(SCc2ccc(CNC(=O)CO)cc2)nc(N2CCCN(C)CC2)c1C#N [Example 86, N-(4-(((3,5-Dicyano-4-ethyl-6-(4-methyl-1,4-diazepan-1-yl)pyridin-2-yl)thio)methyl)benzyl)-2-hydroxyacetamide] | D (Category D: ≥6.5) | < 3.60 | < 0.316 µM | – | – | – | – | > 6.5 | 0.2 µM | –
CCc1c(C#N)c(SC(C(N)=O)c2ccccc2)nc(N2CCC(NC(=O)[C@H](C)N)CC2)c1C#N (stereo partly drawn) [Example 138, (2S)-2-Amino-N-(1-(6-((2-amino-2-oxo-1-phenylethyl)thio)-3,5-dicyano-4-ethylpyridin-2-yl)piperidin-4-yl)propanamide, Trifluoroacetic Acid Salt] | D (Category D: ≥6.5) | 3.78 | < 0.316 µM | – | – | – | – | – | 0.1 µM | > 6.5
CCc1c(C#N)c(SCc2ccc(CC(N)=O)cc2)nc(N2CCCN(C)CC2)c1C#N [Example 83, 2-(4-(((3,5-dicyano-4-ethyl-6-(4-methyl-1,4-diazepan-1-yl)pyridin-2-yl)thio)methyl)phenyl)acetamide] | D (Category D: ≥6.5) | < 3.60 | < 0.316 µM | – | – | – | – | > 6.5 | – | –
CCc1c(C#N)c(SCc2ccc(CC(=O)NC)cc2)nc(N2CCCN(C)CC2)c1C#N [Example 84, 2-(4-(((3,5-Dicyano-4-ethyl-6-(4-methyl-1,4-diazepan-1-yl)pyridin-2-yl)thio)methyl)phenyl)-N-methylacetamide] | D (Category D: ≥6.5) | < 3.60 | < 0.316 µM | – | – | – | – | – | – | –
CCc1c(C#N)c(SCc2ccc(=O)[nH]c2)nc(N(C)C)c1C#N [Example 74, 2-(Dimethylamino)-4-ethyl-6-(((6-oxo-1,6-dihydropyridin-3-yl)methyl)thio)pyridine-3,5-dicarbonitrile] | – | < 3.60 | 1 to 31.6 µM | – | 1 to 31.6 µM | – | – | – | ≥ 1 µM | –
CCc1c(C#N)c(SCc2ccccc2)nc(N2CCC(N)CC2)c1C#N [Example 81, 2-(4-Aminopiperidin-1-yl)-6-(benzylthio)-4-ethylpyridine-3,5-dicarbonitrile] | – | < 3.60 | > 31.6 µM | – | 0.316 to 1 µM | – | – | – | ≥ 1 µM | –
